Measured values as given in patent EP4585599A1, “NITROGEN-CONTAINING FUSED RING COMPOUND, INTERMEDIATE THEREOF, PREPARATION METHOD THEREFOR AND USE THEREOF” (Hangzhou Synrx Therapeutics Biomedical Technology Co., Ltd., priority 2022, dated 2024).
Where two headings read alike, the source gives them in different places.

What was measured:
cells = details: Homo sapiens, DLD-1, 240 h
[1] = biological target: T1, helicase domain of the Pol θ protein (Homo sapiens, UniProt O75417); experiment: Biochemical Activity Assay (ADP Glo Assay) of Pol θ inhibitor, ATPase activity
T1 construct: The helicase domain of the Pol θ protein was purified from insect protein expression system; made in house; host or cells: insect protein expression system
T1 sequence (O75417 102-554 limits assumed): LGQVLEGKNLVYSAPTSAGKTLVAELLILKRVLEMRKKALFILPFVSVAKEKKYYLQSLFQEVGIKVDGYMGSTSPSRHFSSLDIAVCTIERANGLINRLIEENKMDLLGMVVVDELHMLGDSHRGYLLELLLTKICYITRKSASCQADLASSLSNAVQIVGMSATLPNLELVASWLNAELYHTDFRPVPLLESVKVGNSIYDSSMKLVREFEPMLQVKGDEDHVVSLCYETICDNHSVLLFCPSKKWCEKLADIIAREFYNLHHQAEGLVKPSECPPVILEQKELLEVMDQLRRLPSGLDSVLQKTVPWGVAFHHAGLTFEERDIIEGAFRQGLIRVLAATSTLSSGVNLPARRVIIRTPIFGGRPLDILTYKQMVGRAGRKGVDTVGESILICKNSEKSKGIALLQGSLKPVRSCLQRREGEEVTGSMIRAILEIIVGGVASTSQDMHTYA

[2] = read-out: Cell viability assay IC50 (nM), CTG assay, CellTiter Glo, read on Day 10, cell line not given
[3] = ADP-Glo assay, ATPase activity of Pol θ helicase domain, ssDNA substrate, read-out: Biochemical assay IC50
[4] = read-out: Cell viability assay IC50 (nM), CTG on Day 10, cell line not given (method: DLD1 and DLD1^-/- cells)
[5] = ADP-Glo, ssDNA substrate, 60 min at room temperature, read-out: Biochemical assay IC50
[6] = read-out: Cell viability assay IC50 (nM)

SMILES | IC50 [1, 3] [nM] | IC50 [1, 5] [nM] | IC50 (cells; [2]) [nM] | IC50 (cells; [4]) [nM] | IC50 (cells; [6]) [nM] | IC50 ([1]; Biochemical assay IC50 (nM)) [nM]
COc1cnc(Cl)cc1-c1cc(C)ncc1C(=O)Nc1nc2cc(C3=CCC(O)CC3)cnc2s1 (stereo not shown) [Example 2] | 118 | 50 to 200 | 3160 | > 1000 |  | 
COc1cnc(Cl)cc1-c1cnccc1C(=O)Nc1nc2ccc(C3=CCC(O)CC3)nc2s1 (stereo not shown) [Example 4] | 19.1 | < 50 | 736 | 500 to 1000 |  | 
COc1cnc(Cl)cc1-c1cc(C)ncc1C(=O)Nc1nc2ccc(C3=CCC(O)CC3)c(C#N)c2s1 (stereo not shown) [Example 22] | 115 | 50 to 200 | 1580 | > 1000 |  | 
COc1cnc(Cl)c(F)c1-c1cc(C)ncc1C(=O)Nc1nc2ncc(-c3ccn(C)n3)cc2s1 [Example 17] | 8.57 | < 50 | 103 | 100 to 500 |  | 
COc1cnc(Cl)cc1-c1cc(C)ncc1C(=O)Nc1nc2ncc(C3=CCNCC3)cc2s1 [Example 16] | 13.5 | < 50 | 2330 | > 1000 |  | 
COc1cccc(F)c1-c1cc(C)ncc1C(=O)Nc1nc2ccc(C3=CCC(O)CC3)nc2s1 (stereo not shown) [Example 5] | 81.5 | 50 to 200 | 153 | 100 to 500 |  | 
COc1cnc(Cl)c(F)c1-c1cc(C)ncc1C(=O)Nc1nc2cc(F)c(N3CCC(O)CC3)nc2s1 [Example 125] | 10 |  | 3.98 |  |  | 
COc1cnc(Cl)cc1-c1cc(C)ncc1C(=O)Nc1nc2c(=O)[nH]c(-c3c(C)cnn3C)cc2s1 [Example 179, 2'-chloro-N-(6-(1,4-dimethyl-1H-parazol-5-yl)-4-oxo-4,5-dihydrothiazolo[4,5-c]pyridin-2-yl)-5'-methoxy-6-methyl-[4,4'-bipyridine]-3-carboxamide] |  |  |  |  | 562 | 2.43
COc1cnc(Cl)cc1-c1cc(C)ncc1C(=O)Nc1nc2[nH]c(=O)c(-c3c(C)cnn3C)cc2s1 [Example 178, 2'-chloro-N-(6-(1,4-dimethyl-1H-parazol-5-yl)-5-oxo-4,5-dihydrothiazolo[4,5-b]pyridin-2-yl)-5'-methoxvy-6-methyl-[4,4'-bipyridine]-3-carboxamide] |  |  |  |  | 35.5 | 1.63
COc1cnc(C(F)F)cc1-c1cc(C)ncc1C(=O)Nc1nc2cnc(-c3nncn3C)cc2s1 [Example 218] |  |  |  |  | 656 | 31.1
COc1cc(P(C)(C)=O)ccc1-c1cc(C)ncc1C(=O)Nc1nc2cnc(-c3c(C)cnn3C)cc2s1 [Example 153] | 24.4 |  | 545 |  |  | 
COc1cnc(Cl)cc1-c1cc2cncn2cc1C(=O)Nc1nc2cnc(N3CCC(O)CC3)cc2s1 [Example 121] | 51.9 |  | 2510 |  |  | 
COc1cnc(Cl)cc1-c1cc(C)ncc1C(=O)Nc1nc2cnc(N3CCC(NS(C)(=O)=O)CC3)cc2s1 [Example 195] |  |  |  |  | 34.2 | 6.18
COc1cnc(Cl)cc1-c1cc(C)ncc1C(=O)Nc1nc2cnc(C3=CCC4(CC3)CN(C(C)=O)C4)cc2s1 [Example 185] | 8.94 |  | 35.9 |  |  | 
COc1cnc(Cl)cc1-c1cc(C)ncc1C(=O)Nc1nc2cc[nH]c2s1 [Example 90, 2'-chloro-5'-methoxy-6-methyl-N-(4H-pyrrolo[3,2-d]thiazol-2-yl)-[4,4'-bipyridine]-3-car boxamide] |  | > 500 |  | > 1000 |  | 
COc1cnc(Cl)cc1-c1cc(C)ncc1C(=O)Nc1nc2ccc(N3CCC(O)C3)nc2s1 (stereo not shown) [Example 47] | 53 | 50 to 200 | 631 | 500 to 1000 |  | 

Now from value to compound, other results behind:

IC50 [1, 3] [nM] | IC50 [1, 5] [nM] | SMILES | IC50 (cells; [2]) [nM] | IC50 (cells; [4]) [nM] | IC50 (cells; [6]) [nM] | IC50 ([1]; Biochemical assay IC50 (nM)) [nM]
2.51 |  | COc1cnc(Cl)c(F)c1-c1cc(C)ncc1C(=O)Nc1nc2cnc(-c3c(C)noc3C)cc2s1 [Example 211] | 3.28 |  |  | 
4.49 |  | COc1cnc(Cl)cc1-c1cc(C)ncc1C(=O)Nc1nc2cnc(N3CC4(CC(O)C4)C3)nc2s1 [Example 142] | 104 |  |  | 
7.58 | < 50 | COc1cnc(Cl)c(F)c1-c1cc(C)ncc1C(=O)Nc1nc2ncc(N3CCOCC3)cc2s1 [Example 49] | 54.1 | < 100 |  | 
8.06 |  | COc1cnc(Cl)c(F)c1-c1cc(C)ncc1C(=O)Nc1nc2ccc(N3CCC(CO)CC3)nc2s1 [Example 129] | 9.68 |  |  | 
2.51 |  | COc1cnc(Cl)cc1-c1cc(C)ncc1C(=O)Nc1nc2cnc(-c3c(C)cnn3CCO)cc2s1 [Example 220] | 22.2 |  |  | 
7.13 |  | COc1cnc(Cl)cc1-c1cc(C)ncc1C(=O)Nc1nc2c(CO)cc(-c3c(C)cnn3C)cc2s1 [Example 170] | 825 |  |  | 
3.15 | < 50 | COc1cnc(Cl)cc1-c1cc(C)ncc1C(=O)Nc1nc2ncc(N3CCC(N(C)C)CC3)cc2s1 [Example 72] | 190 | 100 to 500 |  | 
1.39 | < 50 | COc1cnc(Cl)cc1-c1cc(C)ncc1C(=O)Nc1nc2ncc(N3CCC(NS(C)(=O)=O)CC3)cc2s1 [Example 68] | 1120 | > 1000 |  | 
1.56 | < 50 | COc1cnc(Cl)cc1-c1cc(C)ncc1C(=O)Nc1nc2ccc(N3CCC(O)CC3)c(F)c2s1 [Example 104] | 5.62 | < 100 |  | 
5.41 |  | COc1cnc(Cl)cc1-c1cc(C)ncc1C(=O)Nc1nc2ccc(N3CC[C@@H](O)C[C@H]3C)nc2s1 [Example 135] | 19.2 |  |  | 
3.21 | < 50 | COc1cnc(Cl)cc1-c1cc(C)ncc1C(=O)Nc1nc2ccc(-c3ccncc3C)nc2s1 [Example 83] | 29.3 | < 100 |  | 
3.63 | < 50 | COc1cnc(Cl)cc1-c1cc(C)ncc1C(=O)Nc1nc2ncc(N3CCC(O)CC3)cc2s1 [Example 59] | 82.5 | < 100 |  | 
4.11 |  | COc1cnc(Cl)cc1-c1cc(C)ncc1C(=O)Nc1nc2ncc(N3CCC(C(C)(C)O)CC3)nc2s1 [Example 134] | 5.41 |  |  | 
5.24 |  | COc1cnc(C(F)F)cc1-c1cc(C)ncc1C(=O)Nc1nc2cnc(N3CCCCC3=O)nc2s1 [Example 201, 2'-(difluoromethyl)-5'-methoxy-6-methyl-N-(5-(2-oxopiperidin-1-yl)thiazolo[5,4-d]pyrimidin-2-yl)-[4,4'-bipyridine]-3-carboxamide] | 224 |  |  | 
4.78 |  | COc1cnc(Cl)cc1-c1cc(C)ncc1C(=O)Nc1nc2cnc(-c3nn(CCO)cc3C)cc2s1 [Example 221] | 1850 |  |  | 
5.93 | < 50 | COc1cnc(Cl)cc1-c1cc(C)ncc1C(=O)Nc1nc2ncc(CC(C)(C)O)cc2s1 [Example 93, 2'-chloro-N-(6-(2-hydroxy-2-methylpropyl)thiazolo[4,5-b]pyridin-2-yl)-5'-methoxy-6-me thyl-[4,4'-bipyridine]-3-carboxamide] | 355 | 100 to 500 |  | 
5.46 |  | COc1cnc(Cl)cc1-c1cc(C)ncc1C(=O)Nc1nc2cc(F)c(N3CCC(O)CC3)cc2s1 [Example 119] | 10.7 |  |  | 
2.95 | < 50 | COc1cnc(Cl)cc1-c1cc(C)ncc1C(=O)Nc1nc2ccc(C3=CCC(O)CC3)c(F)c2s1 (stereo not shown) [Example 20] | 7.64 | < 100 |  | 
2.36 |  | COc1cnc(Cl)cc1-c1cc(C)ncc1C(=O)Nc1nc2cnc(-c3c(F)cnn3C)cc2s1 [Example 154] | 17.8 |  |  | 
